Values joined by “and” are separate entries in the source; they are usually repeats but may differ in a detail not shown here. Identical values can stand only once. “Also recorded” adds a separate entry of the source. Like-named read-outs stand apart in the source and are kept apart here. One block for each molecule: values may come before it. Where no end group is shown, it is not given here. [ ]: non-standard residue; d: D form. hArg = N=C(N)NCCCC[C@H](N)C(=O)O; Dab = NCC[C@H](N)C(=O)O
Columns and labels:
[1] = target: T1, NRP-1 (neuropilin-1), binding of bt-VEGF165 (Homo sapiens, UniProt O14786); test: ELISA: inhibition of bt-VEGF165 binding to NRP-1; conditions: for Inhibition of bt-VEGF165 Binding to NRP-1 [10 µM] / inhibition at 10 µM: mean ± S.D.
Description: The inhibitory activity of obtained triazolopeptides 1–23 toward binding of VEGF165 to NRP-1 was measured with the enzyme-linked immunosorbent assay (ELISA). This protocol was described earlier in the literature and was broadly used by our group. VEGF165 was used in biotinylated form (bt-VEGF165).
This assay was carried out according to a previously described method.

[2] = design: method as in PMID 30241012; conditions: human plasma; cited from earlier work
[3] = target: T1, NRP-1 (neuropilin-1), binding of bt-VEGF165; conditions: cited from earlier work
[4] = system: drug-resistant MDA-MB-231 human breast cancer cells xenograft; design: method as in PMID 16959272; conditions: nude mice xenografted with drug-resistant MDA-MB-231 human breast cancer cells; cited from earlier work
[5] = Proteolytic stability by incubation in human plasma at 37 °C (HPLC-MS); type: in vitro ADME; conditions: for remaining at 8 h, 1.1 µmol/mL / remaining at 16 h, 1.1 µmol/mL / remaining at 24 h, 1.1 µmol/mL / remaining at 32 h, 1.1 µmol/mL / remaining at 40 h, 1.1 µmol/mL / remaining at 48 h, 1.1 µmol/mL: human; for remaining at 8 h, 1.1 µmol/mL / remaining at 16 h, 1.1 µmol/mL / remaining at 24 h, 1.1 µmol/mL / remaining at 32 h, 1.1 µmol/mL / remaining at 40 h, 1.1 µmol/mL / remaining at 48 h, 1.1 µmol/mL / half-life: pooled human plasma
Description: The samples of the incubated solutions were taken at constant time intervals (every 8 h) and analyzed with the use of HPLC-MS. This technique allows for determination of the proteolysis rate, and enables finding the cleavage sites by structural determination of appearing metabolites. To this aim, we used a previously established protocol.
The human plasma was provided by Mossakowski Medical Research Centre Polish Academy of Sciences (venous blood was obtained from three healthy donors and plasma samples were pooled in equal volumes). Triazolopeptide stock solution was prepared to achieve concentration ca. 1.4 mg/mL. Then, this solution was diluted two-fold into human plasma, affording a final concentration of ca. 1.1 µmol/mL. The samples were mixed on vortex mixer and incubated at 37 °C with 700 rpm mixing in thermoblock. Samples of 100 µL were taken every 8 h; the enzymatic cleavage was quenched by addition of 200 µL of 15% aqueos trichloroacetic acid and vortexed for a while. Precipitated proteins were then centrifuged at 14,000 rpm and 4 °C for 10 min to pellet them. After that, 150 µL of supernatant was taken and analyzed on HPLC-MS (quadrupole mass analyzer and electrospray ionization source). The system was equipped with Jupiter Proteo column I.D. 2.0 mm × 250 mm, phase A: ultrapure water + 0.05% TFA, phase B: gradient grade acetonitrile + 0.05% TFA, detection at 210 nm, quadrupole fixed on scan mode. Elution was with linear increase from 0% to 15% of phase B in 30 min, flow = 0.2 mL/min. All samples were analyzed trice in independent experiments.

in vitro = conditions: mouse, cell viability (Muse Cell Analyser), single replicates
Description: (§1) For this reason, we carried out a preliminary cytotoxicity assay on murine progenitor cells (myeloblast-like cell line derived from long term cultures of bone marrow 32D) to investigate the impact of 4 at different concentrations on their viability.
(§2) For the cell survivability test, the myeloblast-like cell line derived from long term cultures of bone marrow (32D, ATCC #CRL-11346) was used. Experiments were carried out using Muse Count & Viability Kit and Muse Cell Analyzer (Merck Millipore) according to the procedure given. Cells were incubated for 24 or 48 h with given 4 concentration. Each experiment was performed in three technical replications in three independent experiments.

[6] = system: myeloblast-like cell line derived from bone marrow (32D); test: In vitro cell survival test (Muse Count & Viability Kit); conditions: 32D cells
Description: as §1, §2

[7] = read-out: Relative (peak area average vs 0 h)

T1 sequence (O14786 22-923, species assumed): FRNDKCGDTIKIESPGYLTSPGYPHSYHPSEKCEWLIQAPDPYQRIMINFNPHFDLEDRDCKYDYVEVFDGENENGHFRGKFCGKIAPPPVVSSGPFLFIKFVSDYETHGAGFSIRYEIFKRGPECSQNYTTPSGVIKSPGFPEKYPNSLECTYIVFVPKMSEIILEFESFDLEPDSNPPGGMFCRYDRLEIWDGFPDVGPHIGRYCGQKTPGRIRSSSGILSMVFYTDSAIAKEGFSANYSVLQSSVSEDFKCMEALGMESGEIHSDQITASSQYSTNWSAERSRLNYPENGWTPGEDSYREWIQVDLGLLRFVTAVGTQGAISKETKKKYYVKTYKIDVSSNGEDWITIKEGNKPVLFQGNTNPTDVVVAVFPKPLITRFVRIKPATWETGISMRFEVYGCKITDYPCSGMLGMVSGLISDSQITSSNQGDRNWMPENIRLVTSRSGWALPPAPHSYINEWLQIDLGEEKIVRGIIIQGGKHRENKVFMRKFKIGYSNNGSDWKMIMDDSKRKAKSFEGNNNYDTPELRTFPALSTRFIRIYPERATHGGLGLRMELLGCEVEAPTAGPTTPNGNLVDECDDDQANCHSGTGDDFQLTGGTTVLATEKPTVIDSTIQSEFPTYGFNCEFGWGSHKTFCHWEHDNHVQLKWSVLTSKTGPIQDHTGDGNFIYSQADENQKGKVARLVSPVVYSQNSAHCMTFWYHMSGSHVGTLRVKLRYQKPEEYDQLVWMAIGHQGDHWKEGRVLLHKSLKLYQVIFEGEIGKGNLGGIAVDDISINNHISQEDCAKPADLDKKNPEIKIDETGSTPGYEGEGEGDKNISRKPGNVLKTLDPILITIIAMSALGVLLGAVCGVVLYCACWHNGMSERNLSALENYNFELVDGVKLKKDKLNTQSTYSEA

- Inhibition of bt-VEGF165 Binding to NRP-1 [10 µM] [1]: 30.5 ± 0.6%
Molecule: Har-6Ahx-GlyΨ[Trl]GlyΨ[Trl]Arg [Compound 19]

- Inhibition of bt-VEGF165 Binding to NRP-1 [10 µM] [1]: 35.7 ± 1.6%
Molecule: Har-Gly-GlyΨ[Trl]GlyΨ[Trl]Arg [Compound 22]

- Inhibition of bt-VEGF165 Binding to NRP-1 [10 µM] [1]: 36.5 ± 1.4%
Molecule: Har-Lys-GlyΨ[Trl]GlyΨ[Trl]Arg [Compound 16]

- Inhibition of bt-VEGF165 Binding to NRP-1 [10 µM] [1]: 41.3 ± 0.5%
Molecule: Dab(Har)-GlyΨ[Trl]GlyΨ[Trl]Arg [Compound 17]

- Inhibition of bt-VEGF165 Binding to NRP-1 [10 µM] [1]: 34.8 ± 1.5%
Molecule: Har-GlyΨ[Trl]GlyΨ[Trl]GlyΨ[Trl]Arg [Compound 13]

- Inhibition of bt-VEGF165 Binding to NRP-1 [10 µM] [1]: 57.7 ± 1.8%
Molecule: Lys(Fmoc-Har)-GlyΨ[Trl]GlyΨ[Trl]Arg [Compound 14]

- Inhibition of bt-VEGF165 Binding to NRP-1 [10 µM] [1]: 43.7 ± 0.5%
Molecule: D-Lys(Fmoc-Har)-GlyΨ[Trl]GlyΨ[Trl]Arg [Compound 15]

- Inhibition of bt-VEGF165 Binding to NRP-1 [10 µM] [1]: 29.7 ± 1.8%
Molecule: Har-5Ava-GlyΨ[Trl]GlyΨ[Trl]Arg [Compound 20]

- Inhibition of bt-VEGF165 Binding to NRP-1 [10 µM] [1]: 20.0 ± 2.1%
Molecule: Har-GlyΨ[Trl]GlyΨ[Trl]Arg [Compound 23]

- Inhibition of bt-VEGF165 Binding to NRP-1 [10 µM] [1]: 25.3 ± 3.5%
Molecule: Dap(Har)-GlyΨ[Trl]GlyΨ[Trl]Arg [Compound 18]

- Inhibition of bt-VEGF165 Binding to NRP-1 [10 µM] [1]: 27.8 ± 2.1%
Molecule: Har-Ala-GlyΨ[Trl]GlyΨ[Trl]Arg [Compound 21]

Continued, molecule first:

Molecule: Lys(Har)-GlyΨ[Trl]Ala-Arg [Compound 10]
- Inhibition of bt-VEGF165 Binding to NRP-1 [10 µM] [1]: 43.3% and 43.2 ± 1.5%

Molecule: Lys(Har)-GlyΨ[Trl]Gly-Arg [Compound 11]
- Inhibition of bt-VEGF165 Binding to NRP-1 [10 µM] [1]: 30.6 ± 1.1%

Molecule: Lys(Har)-Pro-Ala-Arg
- t1/2 [2]: 0.65 h

Molecule: Lys(Har)-Pro-Ala-Arg (KPAR)
- IC50 [3]: 0.2 µM

Molecule: Lys-Pro-Pro-Arg (KPPR; printed: Lys-Pro-Pro-Arg)
- Inhibition of bt-VEGF165 Binding to NRP-1 [10 µM] [3]: 64.5%
- IC50 [3]: 4.6 µM

Molecule: D-Lys(Har)-Phe-GlyΨ[Trl]Arg [Compound 9]
- Inhibition of bt-VEGF165 Binding to NRP-1 [10 µM] [1]: 37.9 ± 1.1%

Molecule: ATWKPPR [A7R]
- Inhibition of bt-VEGF165 Binding to NRP-1 [10 µM] [3]: 61.0 ± 0.4 ^3%
- IC50 [3]: 5.86 µM
- activity in vivo [4]: active in vivo

Molecule: D-Lys(Har)-Pro-GlyΨ[Trl]Arg [Compound 7]
- Inhibition of bt-VEGF165 Binding to NRP-1 [10 µM] [1]: 38.4 ± 1.5%

Molecule: N=C(N)NCCCC[C@H](N)C(=O)NCCCC[C@H](N)C(=O)NCc1cn(Cc2cn([C@@H](CCCNC(=N)N)C(=O)O)nn2)nn1 [Compound 3, Lys(Har)-GlyΨ[Trl]GlyΨ[Trl]Arg]
- IC50 [1]: 8.39 µM
- inhibition at 10 µM [1]: 58.1 ± 2.1%
- compound remained in the solution after 48 h of incubation [5]: more than 70%
- remaining at 8 h, 1.1 µmol/mL [5, 7]: 91.3%
- remaining at 16 h, 1.1 µmol/mL [5, 7]: 90%
- remaining at 24 h, 1.1 µmol/mL [5, 7]: 87.6%
- remaining at 32 h, 1.1 µmol/mL [5, 7]: 81.8%
- remaining at 40 h, 1.1 µmol/mL [5, 7]: 73.4%
- remaining at 48 h, 1.1 µmol/mL [5, 7]: 72.2%
- remaining at 48 h, 1.1 µmol/mL ([5]; read-out: compound remained in the solution after 48 h of incubation): ~70%
- half-life [5]: > 48 h

Molecule: N=C(N)NCCCC[C@H](N)C(=O)NCCCC[C@@H](N)C(=O)NCc1cn(Cc2cn([C@@H](CCCNC(=N)N)C(=O)O)nn2)nn1 [Compound 4, D-Lys(Har)-GlyΨ[Trl]GlyΨ[Trl]Arg]
- viability at 24 h, 0.1 µM (in vitro): 99.4%
- viability at 24 h, 1 µM (in vitro): 99.3%
- viability at 24 h, 10 µM (in vitro): 99%
- viability at 24 h, 50 µM (in vitro): 98.7%
- viability at 24 h, 100 µM (in vitro): 98.6%
- viability at 48 h, 0.1 µM (in vitro): 99.4%
- viability at 48 h, 1 µM (in vitro): 99.6%
- viability at 48 h, 10 µM (in vitro): 99.4%
- viability at 48 h, 50 µM (in vitro): 99.7%
- viability at 48 h, 100 µM (in vitro): 99.2%
- IC50 [1]: 10.2 µM
- inhibition at 10 µM [1]: 52.6 ± 1.3%
- impact on cell survivability ([6]; 100 µM, 48 h incubation): does not exhibit any significant impact on normal cells’ viability; also recorded: does not exhibit any significant impact on cell survivability
- cell survival, t-test ([6]; different concentrations): No significant differences in cell survival
- compound remained in the solution after 48 h of incubation [5]: almost undigested; also recorded: almost non-degraded
- remaining at 8 h, 1.1 µmol/mL [5, 7]: 99.4%
- remaining at 16 h, 1.1 µmol/mL [5, 7]: 95.7%
- remaining at 24 h, 1.1 µmol/mL [5, 7]: 93.3%
- remaining at 32 h, 1.1 µmol/mL [5, 7]: 93.1%
- remaining at 40 h, 1.1 µmol/mL [5, 7]: 93%
- remaining at 48 h, 1.1 µmol/mL [5, 7]: 91.8%
- half-life [5]: > 48 h

Molecule: Lys(Har)-Pro-Dab-Arg (K(hArg)P[Dab]R)
- IC50 [3]: 0.3 µM

Molecule: Lys(Har)-Pro-Dab-Arg
- t1/2 [2]: 0.733 h

Molecule: N=C(N)NCCCC[C@@H](N)C(=O)NCCCC[C@@H](N)C(=O)NCc1cn(Cc2cn([C@@H](CCCNC(=N)N)C(=O)O)nn2)nn1 [Compound 5, D-Lys(D-Har)-GlyΨ[Trl]GlyΨ[Trl]Arg]
- inhibition at 10 µM [1]: 48.5 ± 2.9%
- IC50 ([1]; dose-response curve, supplement): 9.11 µM

Molecule: Lys(Har)-Pro-GlyΨ[Trl]Arg [Compound 6]
- Inhibition of bt-VEGF165 Binding to NRP-1 [10 µM] [1]: 18.3 ± 0.9%

Molecule: Lys(Har)-Dap-Pro-Arg
- Inhibition of bt-VEGF165 Binding to NRP-1 [10 µM] [3]: 96.8%
- IC50 [3]: 0.2 µM
- t1/2 [2]: 41 h

Molecule: Har-Pro-GlyΨ[Trl]Arg [Compound 12]
- Inhibition of bt-VEGF165 Binding to NRP-1 [10 µM] [1]: 9.2 ± 0.8%

Molecule: Lys(Har)-Dab-Pro-Arg
- Inhibition of bt-VEGF165 Binding to NRP-1 [10 µM] [3]: 98.5%
- IC50 [3]: 0.2 µM
- t1/2 [2]: 34 h

Molecule: D-Lys(Har)-GlyΨ[Trl]Arg [Compound 2]
- Inhibition of bt-VEGF165 Binding to NRP-1 [10 µM] [1]: 33.1 ± 1.9%

Molecule: Lys(Har)-Phe-GlyΨ[Trl]Arg [Compound 8]
- Inhibition of bt-VEGF165 Binding to NRP-1 [10 µM] [1]: 30.9 ± 2.1%

Molecule: Lys(Har)-GlyΨ[Trl]Arg [Compound 1]
- Inhibition of bt-VEGF165 Binding to NRP-1 [10 µM] [1]: 28.1 ± 1.2%

— paper PMC6539594, “Triazolopeptides Inhibiting the Interaction between Neuropilin-1 and Vascular Endothelial Growth Factor-165” (Molecules, 2019)
